# Laboratory results as given in ChEMBL document CHEMBL3885861, “Open TG-GATES”.
# Organism: Rattus norvegicus
# Assay: Open TG-GATES - Regimen: Daily Repeat
# Assay type: toxicity, organism-based, Sprague-Dawley
# Parameters: regimen Daily Repeat, gender Male, age 6 weeks
# Conditions: in vivo, po, route gavage; for APTT / Bas / Eos / Fbg / Hb / Ht / Lym / MCHC / MCV / Mono / Neu / PT / Plat / RBC / Ret / WBC: tissue Blood; for KIDNEY_L / KIDNEY_R / KIDNEY_TOTAL: tissue Kidney; for LIVER: tissue Liver; for ALP / ALT / AST / CRE / DBIL / GLC / IP / K / LDH / Na / PL / RALB / TBIL / TC / TG / TP / gamma-GTP: tissue Plasma
# [1] = 300 mg/kg, 72 h, dose level Middle, time 3 day
# [2] = 300 mg/kg, […], dose level Middle, time 7 day
# [3] = 300 mg/kg, […], dose level Middle, time 14 day
# [4] = 300 mg/kg, […], dose level Middle, time 28 day
# [5] = 1000 mg/kg, 72 h, dose level High, time 3 day
# [6] = 1000 mg/kg, […], dose level High, time 7 day
# [7] = 1000 mg/kg, […], dose level High, time 14 day
# [8] = 1000 mg/kg, […], dose level High, time 28 day
smiles,measurement,setting,value
C#C[C@]1(O)CC[C@H]2[C@@H]3CCC4=Cc5oncc5C[C@]4(C)[C@H]3CC[C@@]21C [DANAZOL],TERMINAL_BW,[1],238.4 g
same,APTT,[1],22.7 s
same,Bas,[1],0%
same,Eos,[1],1%
same,Fbg,[1],355.8 mg/dL
same,Hb,[1],13.5 g/dL
same,Ht,[1],40.3%
same,Lym,[1],80%
same,MCHC,[1],33.4%
same,MCV,[1],62.4 fL
same,Mono,[1],2.4%
same,Neu,[1],15.8%
same,PT,[1],16.5 s
same,Plat,[1],115.8 x10_4/uL
same,RBC,[1],645.6 x10_4/ul
same,Ret,[1],6.6%
same,WBC,[1],87.1 x10_2/uL
same,KIDNEY_L,[1],1.1 g
same,KIDNEY_R,[1],1.1 g
same,KIDNEY_TOTAL,[1],2.2 g
same,LIVER,[1],12.4 g
same,ALP,[1],1638.6 IU/L
same,ALT,[1],45.2 IU/L
same,AST,[1],65.8 IU/L
same,CRE,[1],0.2 mg/dL
same,DBIL,[1],0 mg/dL
same,GLC,[1],180.2 mg/dL
same,IP,[1],7.9 mg/dL
same,K,[1],4.5 meq/L
same,LDH,[1],169.6 IU/L
same,Na,[1],141.6 meq/L
same,PL,[1],129.6 mg/dL
same,RALB,[1],3.1 g/dL
same,TBIL,[1],0.004 mg/dL
same,TC,[1],50.2 mg/dL
same,TG,[1],172.2 mg/dL
same,TP,[1],5.7 g/dL
same,gamma-GTP,[1],2 IU/L
same,TERMINAL_BW,[2],263.9 g
same,TERMINAL_BW,[3],303.4 g
same,TERMINAL_BW,[4],343.4 g
same,APTT,[2],25.7 s
same,Bas,[2],0%
same,Eos,[2],0.8%
same,Fbg,[2],360 mg/dL
same,Hb,[2],13.9 g/dL
same,Ht,[2],41.1%
same,Lym,[2],81.8%
same,MCHC,[2],33.8%
same,MCV,[2],61.8 fL
same,Mono,[2],2%
same,Neu,[2],14.8%
same,PT,[2],16.2 s
same,Plat,[2],127.5 x10_4/uL
same,RBC,[2],666.4 x10_4/ul
same,Ret,[2],5.3%
same,WBC,[2],104.2 x10_2/uL
same,APTT,[3],26.4 s
same,Bas,[3],0%
same,Eos,[3],0.8%
same,Fbg,[3],334.2 mg/dL
same,Hb,[3],14.6 g/dL
same,Ht,[3],41.2%
same,Lym,[3],85.2%
same,MCHC,[3],35.4%
same,MCV,[3],58.8 fL
same,Mono,[3],2.4%
same,Neu,[3],10.8%
same,PT,[3],17.3 s
same,Plat,[3],124.6 x10_4/uL
same,RBC,[3],701.4 x10_4/ul
same,Ret,[3],2.8%
same,WBC,[3],113.8 x10_2/uL
same,APTT,[4],26.1 s
same,Bas,[4],0%
same,Eos,[4],0.6%
same,Fbg,[4],310.8 mg/dL
same,Hb,[4],14.5 g/dL
same,Ht,[4],42.2%
same,Lym,[4],84.2%
same,MCHC,[4],34.5%
same,MCV,[4],54.1 fL
same,Mono,[4],1.8%
same,Neu,[4],12.4%
same,PT,[4],17.9 s
same,Plat,[4],108.2 x10_4/uL
same,RBC,[4],779.4 x10_4/ul
same,Ret,[4],2%
same,WBC,[4],79.9 x10_2/uL
same,KIDNEY_L,[2],1.2 g
same,KIDNEY_R,[2],1.2 g
same,KIDNEY_TOTAL,[2],2.4 g
same,KIDNEY_L,[3],1.3 g
same,KIDNEY_R,[3],1.3 g
same,KIDNEY_TOTAL,[3],2.6 g
same,KIDNEY_L,[4],1.4 g
same,KIDNEY_R,[4],1.3 g
same,KIDNEY_TOTAL,[4],2.7 g
same,LIVER,[2],13.6 g
same,LIVER,[3],14.9 g
same,LIVER,[4],14.9 g
same,ALP,[2],1469 IU/L
same,ALT,[2],42.6 IU/L
same,AST,[2],64 IU/L
same,CRE,[2],0.2 mg/dL
same,DBIL,[2],0 mg/dL
same,GLC,[2],181.6 mg/dL
same,IP,[2],6.5 mg/dL
same,K,[2],4.3 meq/L
same,LDH,[2],134.6 IU/L
same,Na,[2],142.2 meq/L
same,PL,[2],132.2 mg/dL
same,RALB,[2],3.1 g/dL
same,TBIL,[2],0.002 mg/dL
same,TC,[2],49.4 mg/dL
same,TG,[2],210.2 mg/dL
same,TP,[2],5.8 g/dL
same,gamma-GTP,[2],1.8 IU/L
same,ALP,[3],1443.4 IU/L
same,ALT,[3],35.6 IU/L
same,AST,[3],58 IU/L
same,CRE,[3],0.2 mg/dL
same,DBIL,[3],0 mg/dL
same,GLC,[3],170 mg/dL
same,IP,[3],6.8 mg/dL
same,K,[3],4.3 meq/L
same,LDH,[3],134.8 IU/L
same,Na,[3],141.8 meq/L
same,PL,[3],115 mg/dL
same,RALB,[3],3.1 g/dL
same,TBIL,[3],0 mg/dL
same,TC,[3],35.6 mg/dL
same,TG,[3],240.6 mg/dL
same,TP,[3],6 g/dL
same,gamma-GTP,[3],2.4 IU/L
same,ALP,[4],1201.6 IU/L
same,ALT,[4],35.6 IU/L
same,AST,[4],57.6 IU/L
same,CRE,[4],0.2 mg/dL
same,DBIL,[4],0 mg/dL
same,GLC,[4],178 mg/dL
same,IP,[4],5.8 mg/dL
same,K,[4],4 meq/L
same,LDH,[4],121.6 IU/L
same,Na,[4],142.2 meq/L
same,PL,[4],130.4 mg/dL
same,RALB,[4],3.1 g/dL
same,TBIL,[4],0.002 mg/dL
same,TC,[4],41.4 mg/dL
same,TG,[4],280.2 mg/dL
same,TP,[4],6.2 g/dL
same,gamma-GTP,[4],2.8 IU/L
same,TERMINAL_BW,[5],232.8 g
same,APTT,[5],23.9 s
same,Bas,[5],0%
same,Eos,[5],1%
same,Fbg,[5],355.8 mg/dL
same,Hb,[5],13.1 g/dL
same,Ht,[5],39.4%
same,Lym,[5],83%
same,MCHC,[5],33.3%
same,MCV,[5],63 fL
same,Mono,[5],3%
same,Neu,[5],12.2%
same,PT,[5],16.6 s
same,Plat,[5],122.2 x10_4/uL
same,RBC,[5],626 x10_4/ul
same,Ret,[5],5.3%
same,WBC,[5],100.4 x10_2/uL
same,KIDNEY_L,[5],1.1 g
same,KIDNEY_R,[5],1.1 g
same,KIDNEY_TOTAL,[5],2.2 g
same,LIVER,[5],13.1 g
same,ALP,[5],1658.2 IU/L
same,ALT,[5],39.2 IU/L
same,AST,[5],60.6 IU/L
same,CRE,[5],0.2 mg/dL
same,DBIL,[5],0 mg/dL
same,GLC,[5],173.4 mg/dL
same,IP,[5],7.6 mg/dL
same,K,[5],4.5 meq/L
same,LDH,[5],153.4 IU/L
same,Na,[5],141 meq/L
same,PL,[5],116.2 mg/dL
same,RALB,[5],3.1 g/dL
same,TBIL,[5],0 mg/dL
same,TC,[5],47.2 mg/dL
same,TG,[5],132.6 mg/dL
same,TP,[5],5.8 g/dL
same,gamma-GTP,[5],2 IU/L
same,TERMINAL_BW,[6],261.4 g
same,TERMINAL_BW,[7],289.1 g
same,TERMINAL_BW,[8],372.5 g
same,APTT,[6],25.7 s
same,Bas,[6],0%
same,Eos,[6],0.8%
same,Fbg,[6],351.6 mg/dL
same,Hb,[6],14 g/dL
same,Ht,[6],41.5%
same,Lym,[6],86.4%
same,MCHC,[6],33.8%
same,MCV,[6],60 fL
same,Mono,[6],1.6%
same,Neu,[6],10.4%
same,PT,[6],16.7 s
same,Plat,[6],143.9 x10_4/uL
same,RBC,[6],693.2 x10_4/ul
same,Ret,[6],4.9%
same,WBC,[6],103.6 x10_2/uL
same,APTT,[7],28.9 s
same,Bas,[7],0%
same,Eos,[7],0.8%
same,Fbg,[7],345.6 mg/dL
same,Hb,[7],14.8 g/dL
same,Ht,[7],42.1%
same,Lym,[7],86.8%
same,MCHC,[7],35.2%
same,MCV,[7],57.3 fL
same,Mono,[7],2.2%
same,Neu,[7],9.6%
same,PT,[7],17.1 s
same,Plat,[7],119 x10_4/uL
same,RBC,[7],734.6 x10_4/ul
same,Ret,[7],2.4%
same,WBC,[7],81.2 x10_2/uL
same,APTT,[8],27.7 s
same,Bas,[8],0%
same,Eos,[8],1.2%
same,Fbg,[8],320.6 mg/dL
same,Hb,[8],14.3 g/dL
same,Ht,[8],41.9%
same,Lym,[8],79.4%
same,MCHC,[8],34.1%
same,MCV,[8],56.1 fL
same,Mono,[8],3%
same,Neu,[8],15.8%
same,PT,[8],18.2 s
same,Plat,[8],112.3 x10_4/uL
same,RBC,[8],749 x10_4/ul
same,Ret,[8],2.2%
same,WBC,[8],69.9 x10_2/uL
same,KIDNEY_L,[6],1.1 g
same,KIDNEY_R,[6],1.2 g
same,KIDNEY_TOTAL,[6],2.3 g
same,KIDNEY_L,[7],1.3 g
same,KIDNEY_R,[7],1.4 g
same,KIDNEY_TOTAL,[7],2.7 g
same,KIDNEY_L,[8],1.5 g
same,KIDNEY_R,[8],1.5 g
same,KIDNEY_TOTAL,[8],3 g
same,LIVER,[6],13.2 g
same,LIVER,[7],15 g
same,LIVER,[8],18 g
same,ALP,[6],1593 IU/L
same,ALT,[6],36.4 IU/L
same,AST,[6],61.2 IU/L
same,CRE,[6],0.1 mg/dL
same,DBIL,[6],0 mg/dL
same,GLC,[6],184 mg/dL
same,IP,[6],7 mg/dL
same,K,[6],4.3 meq/L
same,LDH,[6],136.6 IU/L
same,Na,[6],142.4 meq/L
same,PL,[6],121 mg/dL
same,RALB,[6],3.2 g/dL
same,TBIL,[6],0 mg/dL
same,TC,[6],44.2 mg/dL
same,TG,[6],200.6 mg/dL
same,TP,[6],5.8 g/dL
same,gamma-GTP,[6],2.4 IU/L
same,ALP,[7],1541.2 IU/L
same,ALT,[7],37.6 IU/L
same,AST,[7],58.6 IU/L
same,CRE,[7],0.2 mg/dL
same,DBIL,[7],0 mg/dL
same,GLC,[7],174.8 mg/dL
same,IP,[7],7.2 mg/dL
same,K,[7],4.3 meq/L
same,LDH,[7],133.8 IU/L
same,Na,[7],142.2 meq/L
same,PL,[7],124.2 mg/dL
same,RALB,[7],3.1 g/dL
same,TBIL,[7],0 mg/dL
same,TC,[7],38.6 mg/dL
same,TG,[7],255.8 mg/dL
same,TP,[7],6.2 g/dL
same,gamma-GTP,[7],2.8 IU/L
same,ALP,[8],1028.8 IU/L
same,ALT,[8],37.6 IU/L
same,AST,[8],55.8 IU/L
same,CRE,[8],0.2 mg/dL
same,DBIL,[8],0 mg/dL
same,GLC,[8],177.8 mg/dL
same,IP,[8],6.6 mg/dL
same,K,[8],4.2 meq/L
same,LDH,[8],122.6 IU/L
same,Na,[8],141.6 meq/L
same,PL,[8],133.6 mg/dL
same,RALB,[8],3.2 g/dL
same,TBIL,[8],0 mg/dL
same,TC,[8],41.4 mg/dL
same,TG,[8],275.4 mg/dL
same,TP,[8],6.4 g/dL
same,gamma-GTP,[8],3.6 IU/L
